This is an account of results in patent US6603046B1, “Bis-aromatic a,β-unsaturated ketones” (Lica Pharmaceuticals A/S, priority 1992, dated 2003).

Assay in all cases: organism not typed
The subject of test [1] is L. bozemanii. The class given is cell-based.
The test system of test [2] is L. wadsworthii. The class given is cell-based.
For test [3], the system named is L. longbeacheae. It counts as cell-based.
Test [4] deals with L. domoffli. It counts as cell-based, L. dumoffii.

Converted amounts (≈) assume the structure as drawn.

The term MIC denotes the lowest concentration found to suppress growth.

On to `C=CC(C)(C)c1cc(/C=C/C(=O)c2ccc(O)cc2)c(OC)cc1O` [Licochalcone A, licochalcone A], for which the MIC stood at 2 µg/mL (≈ 5.91 µM) in test [1], 2 µg/mL (≈ 5.91 µM) in test [2], 1 µg/mL (≈ 2.96 µM) in test [3] and 2 µg/mL (≈ 5.91 µM) in test [4].
